Measurements: patent US20190343817A1, “METHOD OF TREATING PAIN” (VERTEX PHARMACEUTICALS INCORPORATED, priority 2018, published 2019)

How the values were obtained:
[1] = test system: subjects with pain following bunionectomy; assay: Safety evaluations in the bunionectomy study (adverse events)
Source text: Safety evaluations included adverse events, clinical laboratory assessments, clinical evaluation of vital signs, electrocardiograms, and physical examinations.

[2] = test system: patients with chronic pain caused by small fiber neuropathy; assay: Efficacy of Compound 1 for pain caused by small fiber neuropathy (randomized, double-blind, placebo-controlled, 6-week study); format: in vivo, human
Protocol: A randomized, double-blind, placebo-controlled, 6-week study that evaluated treatment with Compound 1 (Treatment Arm) or placebo (Placebo Arm) in patients with chronic pain caused by small fiber neuropathy was conducted.
Males and females between the ages of 18 and 80 years, inclusive, with small fiber neuropathy.
Compound 1 was administered orally in 250 mg capsules, prepared as described in Example 2.
The study included a 7-day run-in period, followed a 6-week treatment period. The subjects were randomized to a Placebo Arm (43 subjects) and a Treatment Arm (46 subjects) between the run-in period and the treatment period.
During the run-in period, subjects reported their average pain and sleep interference to establish a baseline NRS pain score and DSIS score.
During the treatment period, Compound 1 was administered to the subjects in the Treatment Arm every 24 hours (q24 h) in a dose of 1250 mg. Subjects in the Placebo Arm received placebo capsules.
Pain intensity was evaluated using an 11-point NRS. The 11-point scale ranged from 0 (no pain) to 10 (worst imaginable pain). From Day −7 through Week 6, subjects reported their average daily pain during the last 24 hours on the NRS via electronic diary.
Subjects reported pain interference with sleep using an 11-point scale ranging from 0 (none) to 10 (severe). The DSIS score was reported each morning in an electronic diary.
Subjects' impressions of their overall health status were reported on a 7-point scale from 1 (very much improved) to 7 (very much worse) at study visits.
NRS pain scores were averaged over weekly periods to reduce the impact on the analyses of individual high or low pain scores. The mean change from baseline in the weekly average of daily pain intensity on the 11-point NRS over the course of the treatment period for subjects in the Placebo and Treatment Arms is depicted graphically in FIG. 3. The mean change from baseline for those treated with Compound 1 compared to placebo was −1.09 (95% CI: −1.88 to −0.29) at Week 6.
The number and percentage of subjects with ≥30% and ≥50% reduction in the weekly average of daily pain intensity on the 11-point NRS at Week 6 is reported in Table 9. The total number of subjects for determining the percentage was based on subjects who had data at Week 6.
The total number of subjects for determining the percentage was based on subjects who had data at Week 6.

[3] = test system: subjects with pain following bunionectomy; assay: Efficacy of Compound 1 in subjects with pain following bunionectomy (randomized, double-blind, placebo-controlled, 3-arm study); format: in vivo, human
Protocol: A randomized, double-blind, placebo-controlled, 3-arm, parallel-design study to evaluate the effect of Compound 1 on acute surgical pain was conducted. Bunionectomy is a well-established, multi-dose, surgical, acute pain model. A randomized, double-blind study design was selected to avoid observer bias and reduce symptoms or outcomes arising from the subjects' knowledge of treatment. A parallel design was considered most appropriate given the acute nature of bunionectomy surgery.
Male and female patients between the ages of 18 and 65 years (inclusive) with pain that is ≥4 on an 11-point Numeric Pain Rating Scale (NPRS) and is moderate or severe on the Verbal Categorical Rating Scale (VRS) after bunionectomy.
Investigational Drug: Compound 1. The investigational drug was administered orally in 250 mg capsules, prepared as described in Example 2. The investigational drug was administered every 12 hours (q12 h). The first dose was 1500 mg, and the remaining doses were 750 mg.
The reference drug was administered orally in 5 mg/325 mg capsules, supplied as over-encapsulated 5 mg/325 mg tablets. The reference drug was administered in a dose of 5 mg/325 mg every 6 hours (q6 h).
After a screening period, subjects received a primary unilateral first metatarsal bunionectomy repair on Day −1. A continuous popliteal sciatic block infusion (0.2% ropivacaine) was started after surgery, and remained in place until approximately 3 AM on Day 1. After removal of the popliteal sciatic block, each subject was randomized when the subject requested the first dose of study drug for pain relief and reported pain ≥4 on the NPRS and moderate or severe pain on the VRS.
A total of 243 subjects were randomized approximately 1:1:1 to the Investigational Arm (80 subjects), Reference Arm (81 subjects), and Placebo Arm (82 subjects). To maintain the blind, all subjects received the same number of capsules in a double-dummy design.
In the Investigational Arm, Compound 1 was administered every 12 hours (q12 h) in a first dose of 1500 mg, followed by three 750 mg doses. The final dose of Compound 1 was given 36 hours after the first dose.
Compound 1 placebo capsules were administered every 12 hours (q12 h).
NPRS scores are frequently used in bunionectomy studies and are recognized by the FDA as a valid pain intensity measure. On the 11-point NPRS, a score of 0 denoted no pain, and a score of 10 denoted the worst pain intensity imaginable. Subjects reported their pain on the 11-point NPRS immediately before their first dose of the study drug (baseline NPRS score) and 0.5, 1, 1.5, 2, 3, 4, 5, 6, 8, 12, 16, 20, 24, 28, 32, 36, 40, 44, and 48 hours (±5 minutes) after the first dose of study drug. Pain intensity also was recorded on the NPRS immediately before each administration of rescue medication. Pain intensity scores that were collected within 4 hours after a dose of rescue medication were taken as missing, and the missing values were imputed as the intensity recorded immediately before the administration of rescue medication.
The primary efficacy analysis was based on an analysis of covariance (ANCOVA) model. The Least Squares (LS) mean of the time-weighted sum of the NPRS pain intensity difference, relative to baseline, from 0 to 24 hours after the first dose (“SPID24”) for each study arm is reported in Table 3. SPID24 is a standard measure of acute pain. Higher SPID24 scores represent improvements in pain relief. “Treatment difference” refers to the difference in SPID24 between the Investigational and Reference Arms, respectively, and the Placebo Arm.
The LS mean of the time-weighted sum of the NPRS pain intensity difference, relative to baseline, from 2 to 24 hours after the first dose (“SPID22”) for each study arm is reported in Table 4. The analysis was based on an analysis of covariance (ANCOVA) model. “Treatment difference” refers to the difference in SPID22 between the Investigational and Reference Arms, respectively, and the Placebo Arm.

[4] = Week 6, 1250 mg q24 h, n/Total of subjects with data at Week 6 given
[5] = oral, Compound 1 1500 mg first dose then 750 mg q12 h, HB/APAP 5 mg/325 mg q6 h, ANCOVA
[6] = relative to baseline, 24 hours after first dose, Investigational Arm 80 subjects, Reference Arm 81 subjects

For Cc1cc(F)ccc1Oc1cc(C(F)(F)F)ccc1C(=O)Nc1ccn(COP(=O)(O)O)c(=O)c1 [Compound 1, (4-(2-(4-fluoro-2-methylphenoxy)-4-(trifluoromethyl)benzamido)-2-oxopyridin-1(2H)-yl)methyl dihydrogen phosphate], the Tolerability ([1]; 1500 mg then 750 mg q12 h, oral) was “generally well tolerated”, the Gastrointestinal adverse events ([1]; percentage of arm) was 13% and the “Mean change from baseline NRS at week 6 (SE), weekly average of daily pain intensity on 11-point NRS” value ([2]; 1250 mg q24 h oral, 6 weeks, baseline 6.43, within-group) was −2.02 (0.27). For the same compound, the “Subjects categorized as improved on the PGIC assessment” value [2, 4] was 39.5% (17/43), the “Subjects with ≥30% reduction in weekly average of daily pain intensity on 11-point NRS” value [2, 4] was 45.0% (18/40) and the “Subjects with ≥50% reduction in weekly average of daily pain intensity on 11-point NRS” value [2, 4] was 32.5% (13/40). The “Mean change from baseline in weekly average of daily pain intensity (NRS), Compound 1 compared to placebo” value ([2]; Week 6, 1250 mg q24 h oral) was −1.09 (95% CI: −1.88 to −0.29), the “Mean change from baseline (SE) in weekly average of Daily Sleep Interference Scale (DSIS) score” value ([2]; Week 6, 1250 mg q24 h oral, baseline 5.94) was −1.78 (0.28) and the “Treatment difference versus placebo in NRS pain intensity” value ([2]; as early as Week 1, 1250 mg q24 h oral) was “greater than 1 point”. The “Treatment difference in SPID24 versus Placebo Arm” value ([3]; 0 to 24 hours after first dose, same dosing as SPID24) was 29.50, the “Treatment difference in SPID48 versus Placebo Arm” value ([3]; 0 to 48 hours after first dose) was 62.79 and the “Treatment difference in SPID22 versus Placebo Arm” value ([3]; 2 to 24 hours after first dose) was 28.53. The “Relief of acute pain compared to placebo (SPID24)” value ([3]; Investigational Arm, 1500 mg then 750 mg q12 h) was “statistically significant relief of acute pain compared to placebo”, the “Subjects who discontinued due to lack of efficacy” value ([3]; bunionectomy study, of subjects assigned to the arm) was 7.5% and the “SPID22 (SE): LS mean of time-weighted sum of NPRS pain intensity difference, relative to baseline, 2 to 24 hours after first dose” value [3, 5] was 34.95 (4.93). For the same compound, the “SPID48 (SE): LS mean of time-weighted sum of NPRS pain intensity difference, relative to baseline, 0 to 48 hours after first dose” value [3, 5] was 112.22 (10.57), the “SPID24 (SE): LS mean of time-weighted sum of NPRS pain intensity difference, relative to baseline, 0 to 24 hours after first dose” value ([3]; oral, Compound 1 1500 mg first dose then 750 mg q12 h, HB/APAP 5 mg/325 mg q6 h, ANCOVA, higher = better pain relief) was 36.14 (5.15) and the “Subjects achieving ≥30% NPRS reduction at 24 hours” value [3, 6] was 46 (57.5) n (%). The “Subjects achieving ≥50% NPRS reduction at 24 hours” value [3, 6] was 41 (51.3) n (%) and the “Subjects achieving ≥70% NPRS reduction at 24 hours” value [3, 6] was 22 (27.5) n (%).
